{"source": "paper PMC9503946", "about": "(Pharmaceuticals, 2022)", "key": {"in vitro": {"experiment": "in vitro", "settings": "human"}, "[1]": {"target": "recombinant SARS-CoV-1 nucleocapsid protein (Severe acute respiratory syndrome coronavirus, UniProt P59595)", "sequence (P59595 whole entry, looked up)": "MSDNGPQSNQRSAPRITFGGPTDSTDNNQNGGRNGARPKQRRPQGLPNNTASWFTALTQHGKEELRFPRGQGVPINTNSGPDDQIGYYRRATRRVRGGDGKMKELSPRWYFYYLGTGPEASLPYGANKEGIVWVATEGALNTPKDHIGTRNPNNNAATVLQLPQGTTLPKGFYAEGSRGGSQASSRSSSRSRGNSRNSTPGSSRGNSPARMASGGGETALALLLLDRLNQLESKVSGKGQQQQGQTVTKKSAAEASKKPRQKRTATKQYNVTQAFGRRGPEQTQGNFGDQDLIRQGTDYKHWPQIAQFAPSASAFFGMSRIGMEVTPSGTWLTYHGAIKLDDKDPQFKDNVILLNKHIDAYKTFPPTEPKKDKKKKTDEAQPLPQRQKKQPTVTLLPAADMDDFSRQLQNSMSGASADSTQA", "experiment": "biochemical", "format": "binding"}, "MRC-5 cells": {"system": "MRC-5 cells", "settings": "72 h; 0.003-100 µM"}, "A549 cells": {"system": "A549 cells", "settings": "72 h; 0.003-100 µM"}, "[2]": {"target": "recombinant SARS-CoV-2 nucleocapsid protein (full-length NP, aa 1–419) (Severe acute respiratory syndrome coronavirus 2, UniProt P0DTC9)", "experiment": "biochemical", "format": "binding"}}, "note": "Several values for one entry are separate records, joined by “and”; a condition that tells them apart may be missing. Identical values can stand only once.", "data": [{"smiles": "Cc1ccc2ccccc2c1COc1ccc2c(C)c(CC(=O)N3CCC4(O)CCCCC4C3)c(=O)oc2c1C", "note": "(stereo not drawn) [Compound 1, 3-[2-(4a-hydroxy-decahydroisoquinolin-2-yl)-2-oxoethyl]-4,8-dimethyl-7-[(2-methylnaphthalen-1-yl)methoxy]-2H-chromen-2-one]", "values": [{"measurement": "IC50", "setting": "in vitro", "value": "51 ± 8.13", "unit": "µM"}, {"measurement": "Kd", "setting": "[1]", "value": "14600 ± 440", "unit": "nM"}, {"measurement": "IC50 (cytotoxicity)", "setting": "MRC-5 cells", "value": "no toxicity"}]}, {"smiles": "Cc1c(CC(=O)N2CCC3(O)CCCCC3C2)c(=O)oc2c(C)c3occ(-c4ccc5ccccc5c4)c3cc12", "note": "(stereo not drawn) [Compound 4, 6-[2-(4a-hydroxy-decahydroisoquinolin-2-yl)-2-oxoethyl]-5,9-dimethyl-3-(naphthalen-2-yl)-7H-furo[3,2-g]chromen-7-one]", "values": [{"measurement": "Kd", "setting": "[1]", "value": "674 nM and < 1000 nM"}, {"measurement": "IC50 (cytotoxicity)", "setting": "A549 cells", "value": "no toxicity"}]}, {"smiles": "Cc1c(CC(=O)N2CCC3(O)CCCCC3C2)c(=O)oc2cc3occ(-c4ccc5ccccc5c4)c3cc12", "note": "(stereo not drawn) [Compound 2, 6-[2-(4a-hydroxy-decahydroisoquinolin-2-yl)-2-oxoethyl]-5-methyl-3-(naphthalen-2-yl)-7H-furo [3,2-g]chromen-7-one]", "values": [{"measurement": "Kd", "setting": "[2]", "value": "22.8 ± 1.52", "unit": "µM"}]}]}
